According to PMC4436313, “Novel Heparan Sulfate-Binding Peptides for Blocking Herpesvirus Entry” (PLoS ONE, 2015):
Ends that are not written are not given here.

Columns and labels:
MEF 10.1 cells = test: Visualization of bound biotinylated peptide by fluorescence microscopy; assay type: binding, Mouse; details: biotinylated peptide 1.6 μg/mL in PBS overnight at 4°C, fixed MEF cells, Alexa Fluor 594-conjugated streptavidin
Method: Coverslips with fixed MEF cells were prepared, washed in PBS, and blocked with 1% BSA/PBS for 5 min. Following a PBS wash, the nuclei were stained using Hoechst (Life Technologies Molecular Probes, Grand Island, NY) 1:100 in H2O for 30 min at 37°C. Cells were then blocked using a casein block solution (Scytek) for 5 min, AVIDIN/Biotin blocks (VECTOR) for 20 min each at room temperature (RT) followed by a 5 min PBS wash. Biotinylated p5+14 or CGGY-p5G (control) at 1.6 μg/mL in PBS was added and incubated overnight at 4°C. Following a PBS wash Alexa Fluor 594-conjugated streptavidin (Molecular Probes) was added at a 1:200 dilution in PBS for 1h at RT. Cells were then permeabilized with 0.2% Triton X-100 (Sigma) in PBS for 10 min at RT and washed with a solution of 1% BSA in PBS for 30 min. The cells were then stained with Alexa Fluor 488-conjugated phalloidin (Molecular Probes) at a 1:100 dilution of stock in 1% BSA/PBS, for 45 min at RT to visualize actin filaments. Slides were cover-slipped using a fluorescent mounting medium (Dako) to minimize photobleaching.
Fig 2 p5+14 binding to cells is charge dependent. (A) Predicted α-helix structure of peptide p5+14 based on ITASSER modeling. (B) Biotinylated peptide p5+14 (left panel) or CGGY-p5G (right panel) was added to MEF 10.1 cells followed by addition of Alexa Fluor 594-conjugated streptavidin (red). […]

[1] = tested on: HCMV TB40/E-pp150-GFP adsorption to HFF cells; test: Flow cytometric analysis of attached virus; assay type: cell-based, Human cytomegalovirus; details: peptide 100μM, HFF cells at 4°C, 1/2 h, then HCMV TB40/E pp150-GFP MOI 10 for 1h; GFP MFI vs PBS treated cells; 3 replicates
Method: HFF cells were grown in a 24 well dish and allowed to reach ~80% confluency. The cells were cooled to 4°C to prevent virus internalization before addition of peptide (100μM) and incubated for ½ h. Following the incubation, HCMV TB40/E pp150-GFP was added (MOI 10) at 4°C and incubated for 1h. Following the incubation, cells were removed from the wells using non-enzymatic cell stripper solution (Corning), fixed (with paraformaldehyde) and the data acquired using a BD FACS Calibur flowcytometer (BD Biosciences). The data was analyzed using FlowJo software (TreeStar).
Fig 5 Peptide p5+14 blocks adsorption of MCMV. (A) MCMV was preincubated with p5+14 peptide (100 μM) before diluting the virus/peptide to an ineffective peptide concentration (1 μM) and assayed in the plaque reduction assay as described in materials and methods. As a control, virus and peptide (100 μM) were added to cells simultaneously. […] Plaque reduction was measured in a plaque reduction assay. […] (C) Adsorption of HCMV TB40/E-pp150-GFP (MOI 10) fusion protein expressing HCMV was measured via flowcytometry in the presence of p5+14 (green), control peptide CGGY-p5G (orange) and PBS (blue). […] Inset is a scatter plot of the mean fluorescence intensity (MFI) for GFP with the line representing average of 3 replicates +/- SD for the different treatments.

MCMV [2] = details: for Plaque Reduction (Average from Fig 1): peptide 500 μg/ml, incubated with MEF 10.1 cells 30 min prior to MCMV (~100 pfu/well), percent reduction vs PBS-treated control, three independent experiments, at least three replicates each
Method: Peptides were screened for their ability to reduce viral infection using a plaque reduction assay. Cells were cultured in 12-well (VERO) or 24-well culture plates (MEF 10.1 and HFF). When cells reached ~80% confluence the media was removed and washed once with PBS before addition of peptide. As a control, cells were incubated with PBS alone. After a 30 min incubation with peptide in PBS, virus (~100 pfu/well for MCMV and ~30–40 pfu/well for HCMV and HSV) was added and incubated for another 90 min (HSV and HCMV) or 60 min (MCMV). Following virus incubation the peptide/virus mixture was removed and replaced with 0.75% carboxymethyl cellulose (Sigma Aldrich, St. Louis, MO) (CMC) + complete media (DMEM + P/S + L-Gln) for MCMV and HSV experiments or 0.5% agarose (Lonza, Rockland, ME) in complete media for HCMV experiments. The plates were incubated at 37° C in 5% CO2 for 4 days and when plaques began to develop, plates were stained with Coomassie stain (AMRESCO, Solon, Ohio). Due to the inability of HCMV to form distinct plaques on HAEC and ARPE-19 cells, infection in these cell types was measured by counting mCherry positive foci 14 days post infection. Plaques were counted manually using a dissection microscope. Data was analyzed using Prism 5.0 (GraphPad Software, La Jolla, CA). Data were expressed as percent infection (100 x (number of plaques after treatment/ the number of plaques in the PBS-treated wells)).
Seven synthetic peptides based on the structure of peptide p5 were screened for their ability to reduce MCMV infection in vitro (Table 1). In the initial screening assays all peptides were tested at a single concentration (500 μg/ml) using a plaque-reduction assay, in which mouse embryonic fibroblasts were incubated with the peptides for 30 min prior to the addition of virus.
(A) Peptides (500 μg/ml) with different net charges and lengths were incubated with cells 30 min prior to addition of MCMV (~100 pfu/well). Bars represent the average of the percent reduction in infection compared to PBS-treated control from three independent experiments with at least three replicates in each + SD. (B) p5+14 and CGGY-p5G (control peptide) were serially diluted and assayed in a plaque reduction assay as described in materials and methods.

[3] = Self-aggregation of peptide (data not shown); assay type: physicochemical
MCMV [4] = test: Heparin blockade of peptide-mediated plaque reduction; assay type: cell-based, murine CMV (MCMV)
Method: Peptide p5+14 (100 μM) was pre-incubated with heparin sodium salt (Acros Organics, NJ) at different concentrations for 1 h at 37°C. This heparin/peptide mix was added to the cells and incubated for 30 min at 37°C. Following the incubation, supernatant was aspirated and cells washed once with PBS to remove unbound/excess heparin or peptide. The cells were subsequently infected with ~100 pfu/well of MCMV. To test whether heparin treatment of cells interferes with virus infection, MEF 10.1 cells in a 24 well dish were pre-incubated with different concentrations of heparin for 1 hour and washed as described above. Following this pre-incubation, infection was initiated as described above. Finally to test the effect of heparin treatment on the infectivity of virus, MCMV was incubated with different concentrations of heparin for 1h before infecting cells. For all treatments, virus was removed 1h post infection and cells were overlaid with CMC. Plates were incubated for 4 days before staining and counting the plaques.
Fig 3 Soluble heparin interferes with peptide inhibition of virus infection. The effect of heparin on the activity of peptide and MCMV viral infectivity in vitro when (A) pre-incubated with the peptide (100 μM), (B) incubated with the cells before adding virus, and (C) pre-incubated with virus alone in a plaque reduction assay. […]

CGGYSGAQGAQAGQAGQAQGAQGAQAGQAGQ [CGGY-p5G, uncharged p5 variant, replaces Lys with Gly throughout; control peptide]
Binding of biotinylated peptide to mouse fibroblasts (MEF 10.1 cells): did not bind
Fluorescent virus attached to the cell surface [1]: no reduction in fluorescence

CGGYSKAQKAQAKQAKQAQKAQKAQAKQAKQ [CGGY-p5, p5 variant with N-terminal Cys residue generated to facilitate incorporation of 99mTc]
Plaque Reduction (Average from Fig 1) (MCMV [2]): ~61%
Self-aggregation [3]: prone to self-aggregation

GGGYSKAQKAQAKQAKQAQKAQKAQAKQAKQ [p5]
Plaque Reduction (Average from Fig 1) (MCMV [2]): ~53%

GGGYSRAQRAQARQARQAQRAQRAQARQARQ [p5R]
Blocking of viral infection compared to peptide p5 (MCMV [2]; from Fig 1A, 500 μg/ml, MCMV): 2 fold
Plaque Reduction (Average from Fig 1) (MCMV [2]): ~75%

GGGYSKAQKAQAKQAKQAQKAQKAQAKQAKQAQKAQKAQAKQAKQ [p5+14]
IC50 (MCMV [2]; read-out: IC50, reduction of MCMV infection, serial dilution of peptide, plaque reduction assay, MEF 10.1): 5.2 µM

MPRRR RIRRR QK [G2, reference compound]
Reduction in MCMV infection at 10 μM (MCMV [2]; peptide 10 μM, plaque reduction assay, comparison p5+14 vs G2): ineffective
Inhibition of MCMV infection at 100 μM (MCMV [2]; peptide 100 μM, plaque reduction assay, comparison p5+14 vs G2): effectively inhibited MCMV infection

heparin sodium salt
Reduction of infection, heparin pre-incubated with MCMV (MCMV [4]; MCMV incubated with heparin 1 h without peptide, all heparin concentrations ≥ 2 μg/mL): > 80%
MCMV infection after pre-incubation of the cells with heparin (MCMV [4]; MEF 10.1 cells pre-incubated with heparin 1 hour and washed prior to virus addition, no peptide): did not alter MCMV infection
